Values belong to the molecule of their own block, whether it stands above or below them.
Experiments:
[1] = 25° C.; AAPS PharmSciTech, 2010, 11(3), 1466-1475; cited from earlier work
[2] = Description: 50 mg of crystalline berberine ascorbate Form A (from example 1) was suspended in 0.20 ml of water.
50 mg of crystalline berberine chloride dihydrate (from Sigma-Aldrich) was suspended in 10 ml of water. […] The solubility residue was isolated by filtration.

[3] = cited from earlier work
[4] = Thermogravimetry analysis (TGA); format: physicochemical; conditions: for TGA mass loss: heating from about 25° C. to about 100° C.
Description: TGA was performed on samples prepared according to standard methods using a Q SERIES™ Q5000 thermogravimetry analyzer available from TA Instruments INSTRUMENTS® (New Castle, Del.). A sample (approximately 5 mg) was placed into an aluminum sample pan and transferred to the TGA furnace. The instrument was purged with nitrogen at 50 mL/min and data collected between 25° C. and 300° C., using a dynamic heating rate of 10° C./minute. Thermal data was analyzed using standard software, e.g., Universal Analysis v.4.5A from TA INSTRUMENTS®.

Remark: listed apart in the source
[5] = Hygroscopicity / form stability versus relative humidity; format: physicochemical; conditions: up to 70% relative humidity, without a form change

solubility in water [2]: less than 5 g/L
SMILES: COc1ccc2cc3[n+](cc2c1OC)CCc1cc2c(cc1-3)OCO2 [berberine chloride]
aqueous solubility (literature value) [1]: 1960 ± 110 µg/mL
solid form of solubility residue (powder X-ray pattern) [2]: converted berberine chloride tetrahydrate
loss of water ([3]; elevated temperature or low humidity environment): more than 8%
uptake of water ([3]; in water or high humidity environment, converts to tetrahydrate form): about 8%

TGA mass loss [4]: 0.3%
SMILES: COc1ccc2c(c1OC)C(C1CCCCC1=O)N1CCc3cc4c(cc3C1=C2)OCO4 (stereo not drawn) [berberine cyclohexanone adduct]

melting point: ~ 130 °C
TGA mass loss [4]: 0.4%
SMILES: CCC(=O)CC1c2c(ccc(OC)c2OC)C=C2c3cc4c(cc3CCN21)OCO4 (stereo not drawn) [berberine methyl ethyl ketone adduct]

TGA mass loss [4]: 0.3%
SMILES: COc1ccc2c(c1OC)C(CC(=O)CC(C)C)N1CCc3cc4c(cc3C1=C2)OCO4 (stereo not drawn) [berberine methyl isobutyl ketone adduct]

TGA mass loss [4]: 0.1%
SMILES: COc1ccc2c(c1OC)C(CC(=O)C(C)C)N1CCc3cc4c(cc3C1=C2)OCO4 (stereo not drawn) [berberine methyl isopropyl ketone adduct]

TGA mass loss [4]: 0.3%
SMILES: COc1ccc2c(c1OC)C(CC(=O)c1ccccc1)N1CCc3cc4c(cc3C1=C2)OCO4 (stereo not drawn) [berberine methyl phenyl ketone adduct]

TGA mass loss [4]: 0.3%
SMILES: COc1ccc2c(c1OC)C(CC(C)=O)N1CCc3cc4c(cc3C1=C2)OCO4 (stereo not drawn) [crystalline berberine acetone adduct, berberine acetone adduct]

hygroscopicity [5]: non-hygroscopic
aqueous solubility, times higher than commercial berberine hydrochloride [2]: more than 50 times
solubility in water [2]: more than 250 g/L
weight loss in thermal study ([4]; heated to about 150° C.): no significant weight loss
TGA mass loss [4]: 0.4%
SMILES: COc1ccc2cc3[n+](cc2c1OC)CCc1cc2c(cc1-3)OCO2 [crystalline berberine ascorbate Form A, berberine ascorbate]

TGA mass loss [4]: 2.5%
SMILES: COc1ccc2cc3[n+](cc2c1OC)CCc1cc2c(cc1-3)OCO2 [crystalline berberine ascorbate Form B, berberine ascorbate]
